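Compound exposure: 48 hours, 5 concentrations, 96-well plates. At the GI50, growth is halved.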 Active and inactive are the calls of the source. No stated cut-off is given here; in the data, active = GI50 up to about 1.1 µM and inactive = higher.
Assays:
Assay in all cases: NCI anticancer screen, dose series, 48 h
[1] = test system: ACHN
[2] = test system: BT-549
[3] = test system: CCRF-CEM
[4] = test system: COLO 205
[5] = test system: DU-145
[6] = test system: EKVX
[7] = test system: HCT-15
[8] = test system: IGROV-1
[9] = test system: K562
[10] = test system: MDA-MB-231
[11] = test system: MDA-N
[12] = test system: MOLT-4
[13] = test system: NCI-H460
[14] = test system: PC-3
[15] = test system: SK-MEL-2
[16] = test system: SK-MEL-5
[17] = test system: SR
[18] = test system: T47D
[19] = test system: TK-10
[20] = test system: UACC-257

Compound	GI50 [1]	GI50 [2]	GI50 [3]	GI50 [4]	GI50 [5]	GI50 [6]	GI50 [7] [µM]	GI50 [8]	GI50 [9]	GI50 [10]	GI50 [11]	GI50 [12]	GI50 [13]	GI50 [14]	GI50 [15]	GI50 [16]	GI50 [17]	GI50 [18]	GI50 [19]	GI50 [20]
O=C1CCCc2cc3c(cc21)CCC3C(=O)O (stereo not given)	> 100 µM (inactive)	> 100 µM (inactive)	> 100 µM (inactive)	> 100 µM (inactive)	> 100 µM (inactive)	> 100 µM (inactive)	> 100	> 100 µM (inactive)	> 100 µM (inactive)	> 100 µM (inactive)	> 100 µM (inactive)	> 100 µM (inactive)	> 100 µM (inactive)	> 100 µM (inactive)	> 100 µM (inactive)	> 100 µM (inactive)	> 100 µM (inactive)	> 100 µM (inactive)	> 100 µM (inactive)	> 100 µM (inactive)
CC(C)OC(=O)C(NC(=O)C(CC(=O)OCc1ccccc1)NC(=O)OCc1ccccc1)NC(=O)C1C(C)(C)CCC1(C)C (stereo not given)	3.56 µM (inactive)	17.4 µM (inactive)	3.18 µM (inactive)	2.99 µM (inactive)	22.9 µM (inactive)	3.85 µM (inactive)	11	13.7 µM (inactive)	4.31 µM (inactive)	2.1 µM (inactive)	10.1 µM (inactive)	8.04 µM (inactive)	16.7 µM (inactive)	2.8 µM (inactive)	19.5 µM (inactive)	13.7 µM (inactive)	2.64 µM (inactive)	26.5 µM (inactive)	18.8 µM (inactive)	30.3 µM (inactive)
Cn1c2ccccc2n2c(N=O)c(-c3ccccc3)nc12	> 100 µM (inactive)	27.6 µM (inactive)	30.5 µM (inactive)	10.2 µM (inactive)	23.7 µM (inactive)	19.4 µM (inactive)	20.1	25.5 µM (inactive)	> 100 µM (inactive)	53.6 µM (inactive)	55.1 µM (inactive)	52.7 µM (inactive)	16.4 µM (inactive)	96.6 µM (inactive)	33.1 µM (inactive)	14.8 µM (inactive)	55.1 µM (inactive)	95.9 µM (inactive)	51.8 µM (inactive)	34.3 µM (inactive)
COC(=O)[C@]1(C)[C@H]2C[C@H]3O[C@H]4[C@H](O)[C@@H](O)OC(CC(O)C(C5=CC(=O)OC5)C(C5=CC(=O)OC5)C(O)CC56CCCCC7[C@@H](C)[C@H](C[C@H]8[C@](C)(C(=O)OC)[C@H](O)CC[C@]78C)O[C@H]([C@@H](O)[C@H](O)O5)[C@H]6O)(CCCCC([C@@H]3C)[C@]2(C)CC[C@@H]1O)[C@H]4O (stereo not given in full)	< 0.0218 µM (active)	0.0625 µM (active)	0.0603 µM (active)	0.338 µM (active)	0.0628 µM (active)	0.0295 µM (active)	0.143	0.0959 µM (active)	0.234 µM (active)	0.347 µM (active)	0.138 µM (active)	< 0.0184 µM (active)	0.0233 µM (active)	0.065 µM (active)	0.237 µM (active)	0.0296 µM (active)	0.0545 µM (active)	0.299 µM (active)	< 0.0391 µM (active)	0.244 µM (active)
O=C(O)[C@H]1NC[C@H]2C(Br)=NO[C@@H]12	> 100 µM (inactive)	> 100 µM (inactive)	> 100 µM (inactive)	> 100 µM (inactive)	> 100 µM (inactive)	> 100 µM (inactive)	> 100	> 100 µM (inactive)	> 100 µM (inactive)	> 100 µM (inactive)	> 100 µM (inactive)	> 100 µM (inactive)	> 100 µM (inactive)	> 100 µM (inactive)	> 100 µM (inactive)	> 100 µM (inactive)	> 100 µM (inactive)	> 100 µM (inactive)	> 100 µM (inactive)	> 100 µM (inactive)
O=C1Nc2cc([N+](=O)[O-])ccc2N/C1=C/C(=O)c1ccc(Cl)cc1	15.1 µM (inactive)	5.27 µM (inactive)	10.5 µM (inactive)	24.4 µM (inactive)	6.71 µM (inactive)	15.7 µM (inactive)	12.6	12.3 µM (inactive)	3.64 µM (inactive)	5.83 µM (inactive)	24.3 µM (inactive)	17 µM (inactive)	8.34 µM (inactive)	16.6 µM (inactive)	16.9 µM (inactive)	15.9 µM (inactive)	12.2 µM (inactive)	13.5 µM (inactive)	3.9 µM (inactive)	27.5 µM (inactive)
CN(C)c1n/c(=N/Cc2ccco2)ss1	25.9 µM (inactive)	18.6 µM (inactive)	1.43 µM (inactive)	2.06 µM (inactive)	> 66.5 µM (inactive)	37.9 µM (inactive)	21.3	> 54.8 µM (inactive)	3.77 µM (inactive)	15.8 µM (inactive)	16.6 µM (inactive)	5.73 µM (inactive)	10.9 µM (inactive)	15.5 µM (inactive)	> 21.1 µM (inactive)	2.76 µM (inactive)	0.521 µM (active)	14.3 µM (inactive)	40 µM (inactive)	46.5 µM (inactive)
COc1cc(/C=C/C(=O)O)ccc1OS(=O)(=O)O	> 100 µM (inactive)	> 100 µM (inactive)	> 100 µM (inactive)	> 100 µM (inactive)	> 100 µM (inactive)	> 100 µM (inactive)	> 100	> 100 µM (inactive)	> 100 µM (inactive)	> 100 µM (inactive)	> 100 µM (inactive)	> 100 µM (inactive)	> 100 µM (inactive)	> 100 µM (inactive)	> 100 µM (inactive)	> 100 µM (inactive)	> 100 µM (inactive)	> 100 µM (inactive)	> 100 µM (inactive)	> 100 µM (inactive)

Reference: ChEMBL document CHEMBL1201862, “PubChem BioAssay data set” (2004)
